Experiments:
[1] = test system: blood vessels of embryonated eggs; experiment: safety test on blood vessels of embryonated eggs; conditions: positive comparative group, 0.05 M SDS, 5 eggs
[2] = test system: collagen I; experiment: cell experiments, expression of collagen I; type: cell-based
[3] = test system: collagen III; experiment: cell experiments, expression of collagen III; type: cell-based
[4] = test system: collagen XVII; experiment: cell experiments, expression of collagen XVII; type: cell-based

Row | SMILES | irritation judgement [1] | bleeding of blood vessels of embryonated eggs ([1]; 30 min) | content having a promoting effect on the expression of collagen I [2] | optimal content (highest expression) for collagen I [2] | content having a promoting effect on the expression of collagen III [3] | optimal content (highest expression) for collagen III [3] | content having a promoting effect on the expression of collagen XVII [4] | optimal content (highest expression) for collagen XVII [4]
1 | CCCCCCCCCCCCOS(=O)(=O)[O-].[Na+] [SDS, sodium dodecyl sulfate] | non-irritants | appear the bleeding phenomenon |  |  |  |  |  | 
2 | CC1(C)[C@@H](O[C@H]2O[C@H](C(=O)[O-])[C@@H](O)[C@H](O)[C@H]2O[C@@H]2O[C@H](C(=O)[O-])[C@@H](O)[C@H](O)[C@H]2O)CC[C@]2(C)[C@H]3C(=O)C=C4[C@@H]5C[C@@](C)(C(=O)O)CC[C@]5(C)CC[C@@]4(C)[C@]3(C)CC[C@@H]12.[K+].[K+] [dipotassium glycyrrhizinate] |  |  | 0.001%-0.1 | 0.01% | 0.001%-0.25 | 0.1% | 0.001%-0.01 | 0.01%

Source: patent US20240216249A1, “COLLAGEN ACTIVATOR, AND PREPARATION METHOD AND APPLICATION THEREOF” (Hangzhou NUPTEC Rising Bioproducts Incorporation, Ltd., priority 2022, published 2024)
